Measurements reported in PMC10518257 (Nature Cancer, 2023).

What was measured:
[1] = biological target: T1, panel of 255 (vepafestinib) or 256 (all other inhibitors) recombinant kinases (Homo sapiens, UniProt Q92630); assay: Kinase selectivity profiling at a single concentration (Carna Biosciences); format: biochemical; details: 22 nM
T1 construct: purchased Carna Biosciences

[2] = biological target: T2, panel of 255 (vepafestinib) or 256 (all other inhibitors) recombinant kinases (Homo sapiens, UniProt P54762); assay: as above; format: biochemical; details: 22 nM
T2 construct: purchased Carna Biosciences

[3] = biological target: T3, panel of 255 (vepafestinib) or 256 (all other inhibitors) recombinant kinases (Homo sapiens, UniProt P12931); assay: as above; format: biochemical; details: 17 nM
T3 construct: purchased Carna Biosciences

[4] = biological target: T4, panel of 255 (vepafestinib) or 256 (all other inhibitors) recombinant kinases (Homo sapiens, UniProt P04629); assay: as above; format: biochemical; details: 17 nM
T4 construct: purchased Carna Biosciences

[5] = biological target: T5, panel of 255 (vepafestinib) or 256 (all other inhibitors) recombinant kinases (Homo sapiens, UniProt P07333); assay: as above; format: biochemical; details: 17 nM
T5 construct: purchased Carna Biosciences

[6] = biological target: T6, panel of 255 (vepafestinib) or 256 (all other inhibitors) recombinant kinases (Homo sapiens, UniProt Q16832); assay: as above; format: biochemical; details: 17 nM
T6 construct: purchased Carna Biosciences

[7] = biological target: T7, panel of 255 (vepafestinib) or 256 (all other inhibitors) recombinant kinases (Homo sapiens, UniProt P07947); assay: as above; format: biochemical; details: 17 nM
T7 construct: purchased Carna Biosciences

[8] = biological target: T8, panel of 255 (vepafestinib) or 256 (all other inhibitors) recombinant kinases (Homo sapiens, UniProt P52333); assay: as above; format: biochemical; details: 17 nM
T8 construct: purchased Carna Biosciences

[9] = biological target: T9, panel of 255 (vepafestinib) or 256 (all other inhibitors) recombinant kinases (Homo sapiens, UniProt P08922); assay: as above; format: biochemical; details: 17 nM
T9 construct: purchased Carna Biosciences

[10] = biological target: T10, panel of 255 (vepafestinib) or 256 (all other inhibitors) recombinant kinases (Homo sapiens, UniProt Q7KZI7); assay: as above; format: biochemical; details: 23 nM
T10 construct: purchased Carna Biosciences

[11] = biological target: T11, panel of 255 (vepafestinib) or 256 (all other inhibitors) recombinant kinases (Homo sapiens, UniProt Q15759); assay: as above; format: biochemical; details: 23 nM
T11 construct: purchased Carna Biosciences

[12] = biological target: T12, panel of 255 (vepafestinib) or 256 (all other inhibitors) recombinant kinases (Homo sapiens, UniProt Q9P0L2); assay: as above; format: biochemical; details: 23 nM
T12 construct: purchased Carna Biosciences

[13] = biological target: T13, panel of 255 (vepafestinib) or 256 (all other inhibitors) recombinant kinases (Homo sapiens, UniProt P31749); assay: as above; format: biochemical; details: 23 nM
T13 construct: purchased Carna Biosciences

[14] = biological target: T14, panel of 255 (vepafestinib) or 256 (all other inhibitors) recombinant kinases (Homo sapiens, UniProt P29376); assay: as above; format: biochemical; details: 23 nM
T14 construct: purchased Carna Biosciences

[15] = biological target: T15, panel of 255 (vepafestinib) or 256 (all other inhibitors) recombinant kinases (Homo sapiens, UniProt Q9NQU5); assay: as above; format: biochemical; details: 23 nM
T15 construct: purchased Carna Biosciences

LC-2/ad NSCLC xenograft = assay: Subcutaneous xenograft efficacy study; format: in vivo, BALB/c nude mice
[16] = system: phospho-RET and phospho-ERK in Ba/F3 KIF5B–RET^WT tumors; assay: Western blotting of tumors after a single dose (target engagement); format: in vivo, mice; details: single dose 50 mg per kg
[17] = system: RET phosphorylation at Y905 and Y1062 and downstream effectors; assay: Western blotting of serum-starved LUAD-0002AS1, ECLC5B and TT cells, 2 h; format: cell-based, human; details: 50 nM
Protocol: Serum-starved cells were treated with 5, 50 or 500 nM inhibitor for 2 h, and then protein phosphorylation levels were examined (Fig. 3a). […] We performed additional dose–response western blotting studies using lower inhibitor concentrations. Immunoblots were quantitated by densitometry, and the EC50 for phosphorylation inhibition was estimated (Extended Data Fig. 4). […] Quantitation of immunoblots is shown in Extended Data Fig. 4c,d.
Following treatment, whole-cell extracts were prepared and subjected to western blotting analysis. Representative immunoblots from two independent experiments are shown. GAPDH was used as a loading control. RSK, ribosomal protein S6 kinase; S6RP, S6 ribosomal protein. b,c, Cells were plated in 96-well plates and treated for 96 h with the inhibitors shown. The number of viable cells was assessed using alamarBlue. b, Viability curves for control HBEC cells (HBECp53-EV) and HBEC cells with the CCDC6-RET fusion (HBECp53-RET) are shown at the left. […] Data were analyzed by non-linear regression, and IC50 values were estimated by curve fitting. […]
See Supplementary Table 4 for a complete list of antibodies and dilutions used. […] The bands of the target proteins were detected with SuperSignal West Dura Extended Duration Substrate (Thermo Fisher Scientific) by the Amersham Imager 600 QC (Cytiva) or exposed to X-ray film and visualized using a Kodak X-ray developer.

KDR = biological target: T16, KDR (Homo sapiens, UniProt P35968); assay: Dose-response IC50 on off-target kinases; format: biochemical
T16 construct: purchased Carna Biosciences

in vivo = details: male, BALB/c, mouse, in vivo, po, 50 mg/kg

T14 sequence (P29376 17-864): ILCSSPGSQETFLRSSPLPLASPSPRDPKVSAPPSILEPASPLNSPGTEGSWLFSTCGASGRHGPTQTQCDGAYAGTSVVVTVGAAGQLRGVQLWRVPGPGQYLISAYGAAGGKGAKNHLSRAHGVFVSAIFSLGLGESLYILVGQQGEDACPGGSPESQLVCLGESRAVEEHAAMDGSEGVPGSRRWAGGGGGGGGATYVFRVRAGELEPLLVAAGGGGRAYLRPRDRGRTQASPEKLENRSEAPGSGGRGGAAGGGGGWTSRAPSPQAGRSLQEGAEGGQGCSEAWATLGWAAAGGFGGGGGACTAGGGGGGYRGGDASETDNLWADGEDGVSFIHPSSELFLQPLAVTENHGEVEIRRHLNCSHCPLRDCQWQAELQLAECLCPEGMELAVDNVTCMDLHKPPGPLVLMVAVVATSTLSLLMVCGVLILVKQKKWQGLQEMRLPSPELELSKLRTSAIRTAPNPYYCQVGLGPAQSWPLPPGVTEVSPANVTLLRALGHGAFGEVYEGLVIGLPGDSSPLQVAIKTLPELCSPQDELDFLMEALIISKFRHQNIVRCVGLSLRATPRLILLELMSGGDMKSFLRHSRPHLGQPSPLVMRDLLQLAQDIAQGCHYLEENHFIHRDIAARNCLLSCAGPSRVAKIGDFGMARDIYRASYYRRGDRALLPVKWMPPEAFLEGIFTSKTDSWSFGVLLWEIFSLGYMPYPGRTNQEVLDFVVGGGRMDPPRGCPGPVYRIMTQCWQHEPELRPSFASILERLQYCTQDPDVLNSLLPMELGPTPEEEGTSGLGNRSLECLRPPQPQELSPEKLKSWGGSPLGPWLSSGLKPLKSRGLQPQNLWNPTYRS
T7 sequence (P07947 whole entry): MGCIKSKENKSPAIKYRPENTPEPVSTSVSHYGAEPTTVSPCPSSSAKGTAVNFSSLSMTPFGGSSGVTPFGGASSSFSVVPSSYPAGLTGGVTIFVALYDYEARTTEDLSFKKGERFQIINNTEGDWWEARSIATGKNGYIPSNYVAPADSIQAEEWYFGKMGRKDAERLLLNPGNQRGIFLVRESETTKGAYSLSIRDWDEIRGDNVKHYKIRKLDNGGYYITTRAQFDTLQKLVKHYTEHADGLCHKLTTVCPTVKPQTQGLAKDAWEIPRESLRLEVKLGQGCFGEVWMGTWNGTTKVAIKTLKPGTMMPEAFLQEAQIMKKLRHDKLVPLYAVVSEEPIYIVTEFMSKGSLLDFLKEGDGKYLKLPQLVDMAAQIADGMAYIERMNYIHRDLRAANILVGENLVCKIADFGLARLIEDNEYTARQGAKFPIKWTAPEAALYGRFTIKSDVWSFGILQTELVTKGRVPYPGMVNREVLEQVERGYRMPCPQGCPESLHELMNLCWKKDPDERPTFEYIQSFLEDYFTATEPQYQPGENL
T13 sequence (P31749 whole entry): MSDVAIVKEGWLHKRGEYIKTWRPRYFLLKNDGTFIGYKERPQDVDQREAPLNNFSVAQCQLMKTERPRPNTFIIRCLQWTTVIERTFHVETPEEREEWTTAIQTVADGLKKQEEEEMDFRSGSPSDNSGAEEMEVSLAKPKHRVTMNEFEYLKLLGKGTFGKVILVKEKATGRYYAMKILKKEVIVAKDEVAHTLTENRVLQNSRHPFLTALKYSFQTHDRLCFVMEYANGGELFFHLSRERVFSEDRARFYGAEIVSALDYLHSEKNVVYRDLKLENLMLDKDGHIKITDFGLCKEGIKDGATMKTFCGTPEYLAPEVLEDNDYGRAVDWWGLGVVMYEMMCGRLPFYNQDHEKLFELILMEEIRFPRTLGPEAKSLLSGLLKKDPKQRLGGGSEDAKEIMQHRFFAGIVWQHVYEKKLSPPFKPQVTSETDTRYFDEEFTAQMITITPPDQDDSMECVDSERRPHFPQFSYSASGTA
T12 sequence (Q9P0L2 whole entry): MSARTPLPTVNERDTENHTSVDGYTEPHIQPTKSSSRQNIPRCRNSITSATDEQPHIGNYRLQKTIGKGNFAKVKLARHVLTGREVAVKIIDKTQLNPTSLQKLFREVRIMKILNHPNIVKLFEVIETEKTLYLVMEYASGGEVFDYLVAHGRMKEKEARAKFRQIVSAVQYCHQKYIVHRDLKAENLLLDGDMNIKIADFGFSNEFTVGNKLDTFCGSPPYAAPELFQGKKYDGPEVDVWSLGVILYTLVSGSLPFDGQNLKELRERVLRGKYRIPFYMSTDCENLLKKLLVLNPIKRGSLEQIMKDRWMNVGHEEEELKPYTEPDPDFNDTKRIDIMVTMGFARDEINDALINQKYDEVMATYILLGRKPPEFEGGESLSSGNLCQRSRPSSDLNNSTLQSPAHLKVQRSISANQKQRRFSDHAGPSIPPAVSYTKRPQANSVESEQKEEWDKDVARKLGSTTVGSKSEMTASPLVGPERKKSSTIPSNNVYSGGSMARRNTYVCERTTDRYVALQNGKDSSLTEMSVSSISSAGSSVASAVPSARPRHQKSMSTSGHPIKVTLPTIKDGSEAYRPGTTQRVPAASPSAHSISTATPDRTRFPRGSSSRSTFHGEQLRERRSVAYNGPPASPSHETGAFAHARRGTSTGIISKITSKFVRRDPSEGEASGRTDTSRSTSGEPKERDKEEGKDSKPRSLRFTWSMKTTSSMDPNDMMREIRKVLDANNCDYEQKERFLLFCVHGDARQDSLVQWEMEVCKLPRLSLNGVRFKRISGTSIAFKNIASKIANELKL
T6 sequence (Q16832 22-855): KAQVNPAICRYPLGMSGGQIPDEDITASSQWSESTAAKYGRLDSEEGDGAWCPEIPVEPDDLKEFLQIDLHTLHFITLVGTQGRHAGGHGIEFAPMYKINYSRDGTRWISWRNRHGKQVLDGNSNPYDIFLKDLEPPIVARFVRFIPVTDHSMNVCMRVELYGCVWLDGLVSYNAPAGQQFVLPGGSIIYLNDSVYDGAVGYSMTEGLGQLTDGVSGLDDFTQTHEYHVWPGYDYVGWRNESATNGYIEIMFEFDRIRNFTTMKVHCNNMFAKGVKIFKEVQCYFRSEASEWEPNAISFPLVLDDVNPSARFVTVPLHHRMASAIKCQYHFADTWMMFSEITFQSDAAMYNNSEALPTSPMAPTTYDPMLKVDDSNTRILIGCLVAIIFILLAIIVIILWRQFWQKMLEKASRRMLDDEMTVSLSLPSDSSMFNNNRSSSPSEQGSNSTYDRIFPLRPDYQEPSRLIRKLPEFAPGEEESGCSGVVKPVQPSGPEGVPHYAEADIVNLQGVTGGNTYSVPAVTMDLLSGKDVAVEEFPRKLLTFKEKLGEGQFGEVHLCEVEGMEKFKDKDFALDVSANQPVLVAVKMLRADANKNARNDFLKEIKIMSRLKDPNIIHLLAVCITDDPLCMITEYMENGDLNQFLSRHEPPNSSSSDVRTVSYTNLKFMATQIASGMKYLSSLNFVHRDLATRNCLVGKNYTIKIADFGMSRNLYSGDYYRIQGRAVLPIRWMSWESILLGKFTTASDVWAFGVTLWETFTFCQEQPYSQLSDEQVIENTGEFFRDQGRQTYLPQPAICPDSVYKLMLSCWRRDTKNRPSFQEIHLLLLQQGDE
T10 sequence (Q7KZI7 whole entry): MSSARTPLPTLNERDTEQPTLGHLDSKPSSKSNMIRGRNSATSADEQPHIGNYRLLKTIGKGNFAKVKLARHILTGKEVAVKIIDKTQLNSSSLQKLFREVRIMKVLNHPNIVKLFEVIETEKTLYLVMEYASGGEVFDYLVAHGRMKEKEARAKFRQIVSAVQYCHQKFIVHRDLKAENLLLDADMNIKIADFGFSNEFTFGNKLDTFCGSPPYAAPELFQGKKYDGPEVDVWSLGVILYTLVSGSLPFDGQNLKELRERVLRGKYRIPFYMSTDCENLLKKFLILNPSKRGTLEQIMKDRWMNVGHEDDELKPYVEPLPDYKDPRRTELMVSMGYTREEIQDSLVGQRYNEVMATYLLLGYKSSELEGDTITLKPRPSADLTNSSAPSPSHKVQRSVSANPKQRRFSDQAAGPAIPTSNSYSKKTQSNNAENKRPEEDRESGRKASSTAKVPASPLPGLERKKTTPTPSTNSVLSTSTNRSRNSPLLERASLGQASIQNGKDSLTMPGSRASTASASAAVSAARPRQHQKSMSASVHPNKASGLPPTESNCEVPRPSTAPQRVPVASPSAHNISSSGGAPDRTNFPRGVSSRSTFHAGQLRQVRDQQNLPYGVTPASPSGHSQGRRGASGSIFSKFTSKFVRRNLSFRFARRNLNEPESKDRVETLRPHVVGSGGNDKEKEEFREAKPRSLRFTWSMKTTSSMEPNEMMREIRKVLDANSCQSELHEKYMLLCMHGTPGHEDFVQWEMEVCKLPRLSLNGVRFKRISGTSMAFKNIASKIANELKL
T3 sequence (P12931 whole entry): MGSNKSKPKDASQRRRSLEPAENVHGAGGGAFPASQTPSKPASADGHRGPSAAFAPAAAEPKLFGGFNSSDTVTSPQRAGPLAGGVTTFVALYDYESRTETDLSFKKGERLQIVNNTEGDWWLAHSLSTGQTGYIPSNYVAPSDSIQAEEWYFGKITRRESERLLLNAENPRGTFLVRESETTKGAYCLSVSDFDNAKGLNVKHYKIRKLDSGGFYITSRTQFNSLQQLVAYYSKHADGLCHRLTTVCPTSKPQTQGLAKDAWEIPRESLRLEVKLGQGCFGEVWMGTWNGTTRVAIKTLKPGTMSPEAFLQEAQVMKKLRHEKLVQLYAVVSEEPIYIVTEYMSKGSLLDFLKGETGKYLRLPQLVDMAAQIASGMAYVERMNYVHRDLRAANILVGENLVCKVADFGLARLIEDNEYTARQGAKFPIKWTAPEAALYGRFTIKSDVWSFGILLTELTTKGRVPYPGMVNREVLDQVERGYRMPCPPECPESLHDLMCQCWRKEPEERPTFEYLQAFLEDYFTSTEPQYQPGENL

## COc1ccc(CN2C3CC2CN(c2ccc(-c4cc(OCC(C)(C)O)cn5ncc(C#N)c45)cn2)C3)cn1 [Selpercatinib]
[1]
  % Inhibiton DYRK2: 17.3%
[2]
  % Inhibiton EPHB1: 36.2%

## CO[C@]1(C(=O)N[C@@H](C)c2ccc(-n3cc(F)cn3)nc2)CC[C@H](c2nc(C)cc(Nc3cc(C)[nH]n3)n2)CC1 [Pralsetinib]
[3]
  % Inhibiton SRC: 34.5%
[4]
  % Inhibiton TRKA: 40.8%
[5]
  % Inhibiton FMS: 25.5%
[6]
  % Inhibiton DDR2: 72.5%
[7]
  % Inhibiton YES: 37.6%
[8]
  % Inhibiton JAK3: 72.3%
[9]
  % Inhibiton ROS: 40%

## COCc1ccc(NC(=O)c2c(C#CCN3CCOCC3)n(C3(C)CC3)c3ncnc(N)c23)cc1 [Vepafestinib, 4-amino-N-[4-(methoxymethyl)phenyl]-7-(1-methylcyclopropyl)-6-[3-(morpholin-4-yl)prop-1-yn-1-yl]-7H-pyrrolo[2,3-d]pyrimidine-5-carboxamide]
[10]
  % Inhibiton MARK2: 14.1%
[11]
  % Inhibiton p38β: 7%
[12]
  % Inhibiton MARK1: 6.5%
[13]
  % Inhibiton AKT1: 7.9%
[14]
  % Inhibiton LTK: 11.3%
[15]
  % Inhibiton PAK6: 7.4%
LC-2/ad NSCLC xenograft; 25 mg/kg BID, day 0
  Tumor Volume (mm3) Mean: 143.372 mm3
LC-2/ad NSCLC xenograft; 25 mg/kg BID, day 4
  Tumor Volume (mm3) Mean: 128.076 mm3
LC-2/ad NSCLC xenograft; 25 mg/kg BID, day 8
  Tumor Volume (mm3) Mean: 127.413 mm3
LC-2/ad NSCLC xenograft; 25 mg/kg BID, day 11
  Tumor Volume (mm3) Mean: 123.160 mm3
LC-2/ad NSCLC xenograft; 25 mg/kg BID, day 15
  Tumor Volume (mm3) Mean: 151.811 mm3
LC-2/ad NSCLC xenograft; 50 mg/kg BID, day 0
  Tumor Volume (mm3) Mean: 140.580 mm3
LC-2/ad NSCLC xenograft; 50 mg/kg BID, day 4
  Tumor Volume (mm3) Mean: 117.460 mm3
LC-2/ad NSCLC xenograft; 50 mg/kg BID, day 8
  Tumor Volume (mm3) Mean: 119.902 mm3
LC-2/ad NSCLC xenograft; 50 mg/kg BID, day 11
  Tumor Volume (mm3) Mean: 105.200 mm3
LC-2/ad NSCLC xenograft; 50 mg/kg BID, day 15
  Tumor Volume (mm3) Mean: 98.169 mm3
LC-2/ad NSCLC xenograft; 50 mg/kg QD, day 0
  Tumor Volume (mm3) Mean: 140.683 mm3
LC-2/ad NSCLC xenograft; 50 mg/kg QD, day 4
  Tumor Volume (mm3) Mean: 139.893 mm3
LC-2/ad NSCLC xenograft; 50 mg/kg QD, day 8
  Tumor Volume (mm3) Mean: 112.730 mm3
LC-2/ad NSCLC xenograft; 50 mg/kg QD, day 11
  Tumor Volume (mm3) Mean: 118.521 mm3
LC-2/ad NSCLC xenograft; 50 mg/kg QD, day 15
  Tumor Volume (mm3) Mean: 131.887 mm3
[16]
  duration of complete inhibition of phospho-RET and phospho-ERK in tumors: at least 8 h
[17]
  inhibition of phosphorylation of RET and downstream effectors: Near-complete inhibition
KDR
  IC50: 172 nM
In vivo
  Kp: 1.8
  Kp uu: 1.3
